Assay results as given in US20090258069A1, “Delivery of LFA-1 antagonists to the gastrointestinal system” (priority 2008, published 2009).

Test system: tester strains
Test: In vitro Ames bacterial reverse mutation assay
Format: cell-based
Conditions: presence or absence of microsomal (S9) enzymes
Source text: Therefore, Compound 12 was judged to be not mutagenic.

CS(=O)(=O)c1cccc(C[C@H](NC(=O)c2c(Cl)cc3c(c2Cl)CCN(C(=O)c2ccc4ccoc4c2)C3)C(=O)O)c1 [Compound 12]
Ames assay, revertants per plate: not mutagenic
